Where two headings read alike, the source gives them in different places.
Target: human MGL from HeLa cells (Homo sapiens (Human), UniProt Q99685)
Assay: MGL in vitro activity assay ([glycerol-1,3-3H]-oleoyl glycerol cleavage, activated carbon filter)
Format: biochemical
Procedure: The assay consists of combining endogenously expressed MGL from HeLa cells with test compounds, adding[glycerol-1,3-^3H]-oleoyl glycerol, incubating for one hour, and then measuring the amount of cleaved[1,3-^3H]-glycerol that passes through an activated carbon filter. The amount of cleaved, tritiated glycerol passing through the carbon filter is proportional to the activity of the MGL enzyme in a particular well/test condition.
Standard conditions for this assay combine 300 nM [Glycerol-1,3-^3H]-oleoyl glycerol with human MGL from HeLa cells and test compounds for one hour, after which the reaction is filtered through activated carbon and tritium is measured in the flow through. […] MGL is the predominant hydrolase in HeLa cells/cell homogenates.

[1] = 300 nM [Glycerol-1,3-3H]-oleoyl glycerol, endogenously expressed MGL from HeLa cells, one hour incubation, read-out: MGL IC50

Sequence of human MGL from HeLa cells (Q99685 whole entry): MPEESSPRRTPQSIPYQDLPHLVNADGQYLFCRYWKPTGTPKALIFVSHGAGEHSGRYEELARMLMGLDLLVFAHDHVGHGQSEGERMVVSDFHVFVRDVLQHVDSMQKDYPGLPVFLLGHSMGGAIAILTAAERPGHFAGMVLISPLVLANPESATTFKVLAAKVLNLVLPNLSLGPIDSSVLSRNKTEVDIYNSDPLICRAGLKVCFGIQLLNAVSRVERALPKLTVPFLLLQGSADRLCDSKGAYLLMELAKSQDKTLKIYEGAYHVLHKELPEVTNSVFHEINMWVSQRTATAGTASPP

| SMILES | IC50 [1] [nM] | IC50 [nM] |
| --- | --- | --- |
| O=C1N[C@]2(CO1)C[C@H](C(=O)N1CC3CC3(c3ccccc3)C1)C2 (mixture of isomers) [Example 4, (rac)-(2s,4s)-2-(1-Phenyl-3-azabicyclo[3.1.0]hexane-3-carbonyl)-7-oxa-5-azaspiro[3.4]octan-6-one] | 49 |  |
| CC(C)c1cccc(C23CC2CN(C(=O)[C@H]2C[C@]4(COC(=O)N4)C2)C3)c1 (mixture of isomers) [Example 6, (rac)-(2s,4s)-2-(1-(3-Isopropylphenyl)-3-azabicyclo[3.1.0]hexane-3-carbonyl)-7-oxa-5-azaspiro[3.4]octan-6-one] | 6.9 |  |
| CC(C)c1ccc(C23CC2CN(C(=O)[C@H]2C[C@]4(COC(=O)N4)C2)C3)cc1 (mixture of isomers) [Example 9, (rac)-(2s,4s)-2-(1-(4-Isopropylphenyl)-3-azabicyclo[3.1.0]hexane-3-carbonyl)-7-oxa-5-azaspiro[3.4]octan-6-one] | 2.2 |  |
| CC(C)c1ccc(C23CC2CN(C(=O)[C@H]2C[C@]4(CCC(=O)N4)C2)C3)cc1 (mixture of isomers) [Example 12, (rac)-(2r,4s)-2-(1-(4-Isopropylphenyl)-3-azabicyclo[3.1.0]hexane-3-carbonyl)-5-azaspiro[3.4]octan-6-one] | 14 |  |
| CC(C)(C)c1ccc(C23CC2CN(C(=O)[C@H]2C[C@]4(CCC(=O)N4)C2)C3)cc1 (mixture of isomers) [Example 13, (rac)-(2r,4s)-2-(1-(4-(tert-Butyl)phenyl)-3-azabicyclo[3.1.0]hexane-3-carbonyl)-5-azaspiro[3.4]octan-6-one] | 9.2 |  |
| O=C1N[C@]2(CO1)C[C@H](C(=O)N1CC3CC3(c3cccc(C4CC4)c3)C1)C2 (mixture of isomers) [Example 16, (rac)-(2s,4s)-2-(1-(3-Cyclopropylphenyl)-3-azabicyclo[3.1.0]hexane-3-carbonyl)-7-oxa-5-azaspiro[3.4]octan-6-one] | 5.6 |  |
| O=C1N[C@]2(CO1)C[C@H](C(=O)N1CC3CC3(c3ccc(C4CC4)cc3)C1)C2 (mixture of isomers) [Example 18, (rac)-(2s,4s)-2-(1-(4-Cyclopropylphenyl)-3-azabicyclo[3.1.0]hexane-3-carbonyl)-7-oxa-5-azaspiro[3.4]octan-6-one] | 4.4 |  |
| O=C1N[C@]2(CO1)C[C@H](C(=O)N1CC3CC3(c3cccc(OC(F)(F)F)c3)C1)C2 (mixture of isomers) [Example 19, (rac)-(2s,4s)-2-(1-(3-(Trifluoromethoxy)phenyl)-3-azabicyclo[3.1.0]hexane-3-carbonyl)-7-oxa-5-azaspiro[3.4]octan-6-one] | 11 |  |
| Cc1ccccc1C12CC1CN(C(=O)[C@H]1C[C@]3(COC(=O)N3)C1)C2 (mixture of isomers) [Example 20, (rac)-(2s,4s)-2-(1-(o-Tolyl)-3-azabicyclo[3.1.0]hexane-3-carbonyl)-7-oxa-5-azaspiro[3.4]octan-6-one] | 6.5 |  |
| Cc1cccc(C23CC2CN(C(=O)[C@H]2C[C@]4(COC(=O)N4)C2)C3)c1 (mixture of isomers) [Example 21, (rac)-(2s,4s)-2-(1-(m-Tolyl)-3-azabicyclo[3.1.0]hexane-3-carbonyl)-7-oxa-5-azaspiro[3.4]octan-6-one] | 14 |  |
| O=C1N[C@]2(CO1)C[C@H](C(=O)N1CC3CC3(c3ccc(OC(F)(F)F)cc3)C1)C2 (mixture of isomers) [Example 22, (rac)-(2s,4s)-2-(1-(4-(Trifluoromethoxy)phenyl)-3-azabicyclo[3.1.0]hexane-3-carbonyl)-7-oxa-5-azaspiro[3.4]octan-6-one] | 16 |  |
| O=C1N[C@]2(CO1)C[C@H](C(=O)N1CC3CC3(c3cccc(C(F)(F)F)c3)C1)C2 (mixture of isomers) [Example 23, (rac)-(2s,4s)-2-(1-(3-(Trifluoromethyl)phenyl)-3-azabicyclo[3.1.0]hexane-3-carbonyl)-7-oxa-5-azaspiro[3.4]octan-6-one] | 14 |  |
| O=C1N[C@]2(CO1)C[C@H](C(=O)N1CC3CC3(c3ccc(C(F)(F)F)cc3)C1)C2 (mixture of isomers) [Example 24, (rac)-(2s,4s)-2-(1-(4-(Trifluoromethyl)phenyl)-3-azabicyclo[3.1.0]hexane-3-carbonyl)-7-oxa-5-azaspiro[3.4]octan-6-one] | 15 |  |
| Cc1ccc(C23CC2CN(C(=O)[C@H]2C[C@]4(COC(=O)N4)C2)C3)cc1C(F)(F)F (mixture of isomers) [Example 25, (rac)-(2s,4s)-2-(1-(4-Methyl-3-(trifluoromethyl)phenyl)-3-azabicyclo[3.1.0]hexane-3-carbonyl)-7-oxa-5-azaspiro[3.4]octan-6-one] | 3.6 |  |
| CC1(c2ccc(C34CC3CN(C(=O)[C@H]3C[C@]5(CCC(=O)N5)C3)C4)cc2)CC1 (mixture of isomers) [Example 27, (rac)-(2r,4s)-2-(1-(4-(1-Methylcyclopropyl)phenyl)-3-azabicyclo[3.1.0]hexane-3-carbonyl)-5-azaspiro[3.4]octan-6-one] | 9.5 |  |
| O=C1N[C@]2(CO1)C[C@H](C(=O)N1CC3CC3(c3ccc(Oc4ccccc4)cc3)C1)C2 (mixture of isomers) [Example 28, (rac)-(2s,4s)-2-(1-(4-Phenoxyphenyl)-3-azabicyclo[3.1.0]hexane-3-carbonyl)-7-oxa-5-azaspiro[3.4]octan-6-one] | 1.7 |  |
| O=C1N[C@]2(CO1)C[C@H](C(=O)N1CC3CC3(c3cccc(Oc4ccccc4)c3)C1)C2 (mixture of isomers) [Example 29, (rac)-(2s,4s)-2-(1-(3-Phenoxyphenyl)-3-azabicyclo[3.1.0]hexane-3-carbonyl)-7-oxa-5-azaspiro[3.4]octan-6-one] | 1.5 |  |
| O=C1N[C@]2(CO1)C[C@H](C(=O)N1CCC3(c4cccc(OC(F)(F)F)c4)CC3C1)C2 (mixture of isomers) [Example 49, (rac)-(2s,4s)-2-(6-(3-(Trifluoromethoxy)phenyl)-3-azabicyclo[4.1.0]heptane-3-carbonyl)-7-oxa-5-azaspiro[3.4]octan-6-one] |  | 1.6 |
| O=C1CC[C@]2(C[C@H](C(=O)N3CCC4(c5cccc(OC(F)(F)F)c5)CC4C3)C2)N1 (mixture of isomers) [Example 52, (rac)-(2r,4s)-2-(6-(3-(Trifluoromethoxy)phenyl)-3-azabicyclo[4.1.0]heptane-3-carbonyl)-5-azaspiro[3.4]octan-6-one] | 4.8 |  |

Further lines, with some results ahead:

| IC50 [1] [nM] | SMILES | IC50 [nM] |
| --- | --- | --- |
| 2.9 | Cc1ccc(C23CC2CN(C(=O)[C@H]2C[C@]4(COC(=O)N4)C2)C3)cc1Cl (mixture of isomers) [Example 30, (rac)-(2s,4s)-2-(1-(3-Chloro-4-methylphenyl)-3-azabicyclo[3.1.0]hexane-3-carbonyl)-7-oxa-5-azaspiro[3.4]octan-6-one] |  |
| 1.1 | CC1(c2cccc(C34CC3CN(C(=O)[C@H]3C[C@]5(COC(=O)N5)C3)C4)c2)CC1 (mixture of isomers) [Example 31, (rac)-(2s,4s)-2-(1-(3-(1-Methylcyclopropyl)phenyl)-3-azabicyclo[3.1.0]hexane-3-carbonyl)-7-oxa-5-azaspiro[3.4]octan-6-one] |  |
| 2.5 | Cc1cc(C(F)(F)F)ccc1C12CC1CN(C(=O)[C@H]1C[C@]3(COC(=O)N3)C1)C2 (mixture of isomers) [Example 33, (rac)-(2s,4s)-2-(1-(2-Methyl-4-(trifluoromethyl)phenyl)-3-azabicyclo[3.1.0]hexane-3-carbonyl)-7-oxa-5-azaspiro[3.4]octan-6-one] |  |
| 3.1 | Cc1cc(OC(F)(F)F)ccc1C12CC1CN(C(=O)[C@H]1C[C@]3(COC(=O)N3)C1)C2 (mixture of isomers) [Example 34, (rac)-(2s,4s)-2-(1-(2-Methyl-4-(trifluoromethoxy)phenyl)-3-azabicyclo[3.1.0]hexane-3-carbonyl)-7-oxa-5-azaspiro[3.4]octan-6-one] |  |
| 6.5 | Cc1cc(C23CC2CN(C(=O)[C@H]2C[C@]4(COC(=O)N4)C2)C3)ccc1OC(F)(F)F (mixture of isomers) [Example 35, (rac)-(2s,4s)-2-(1-(3-Methyl-4-(trifluoromethoxy)phenyl)-3-azabicyclo[3.1.0]hexane-3-carbonyl)-7-oxa-5-azaspiro[3.4]octan-6-one] |  |
| 3.2 | Cc1cc(C23CC2CN(C(=O)[C@H]2C[C@]4(COC(=O)N4)C2)C3)ccc1C(F)(F)F (mixture of isomers) [Example 36, (rac)-(2s,4s)-2-(1-(3-Methyl-4-(trifluoromethyl)phenyl)-3-azabicyclo[3.1.0]hexane-3-carbonyl)-7-oxa-5-azaspiro[3.4]octan-6-one] |  |
| 10 | Cc1ccc(C23CC2CN(C(=O)[C@H]2C[C@]4(COC(=O)N4)C2)C3)cc1F (mixture of isomers) [Example 37, (rac)-(2s,4s)-2-(1-(3-Fluoro-4-methylphenyl)-3-azabicyclo[3.1.0]hexane-3-carbonyl)-7-oxa-5-azaspiro[3.4]octan-6-one] |  |
| 20 | O=C1N[C@]2(CO1)C[C@H](C(=O)N1CCC3(c4ccccc4)CC3C1)C2 (mixture of isomers) [Example 39, (rac)-(2s,4s)-2-(6-Phenyl-3-azabicyclo[4.1.0]heptane-3-carbonyl)-7-oxa-5-azaspiro[3.4]octan-6-one] |  |
| 8.2 | Cc1cccc(C23CCN(C(=O)[C@H]4C[C@]5(COC(=O)N5)C4)CC2C3)c1 (mixture of isomers) [Example 43, (rac)-(2s,4s)-2-(6-(m-Tolyl)-3-azabicyclo[4.1.0]heptane-3-carbonyl)-7-oxa-5-azaspiro[3.4]octan-6-one] |  |
| 3.7 | Cc1ccc(C23CCN(C(=O)[C@H]4C[C@]5(COC(=O)N5)C4)CC2C3)cc1F (mixture of isomers) [Example 46, (rac)-(2s,4s)-2-(6-(3-Fluoro-4-methylphenyl)-3-azabicyclo[4.1.0]heptane-3-carbonyl)-7-oxa-5-azaspiro[3.4]octan-6-one] |  |
| 2.5 | O=C1N[C@]2(CO1)C[C@H](C(=O)N1CCC3(c4ccc(OC(F)(F)F)cc4)CC3C1)C2 (mixture of isomers) [Example 54, (rac)-(2s,4s)-2-(6-(4-(Trifluoromethoxy)phenyl)-3-azabicyclo[4.1.0]heptane-3-carbonyl)-7-oxa-5-azaspiro[3.4]octan-6-one] |  |

— patent US11708359B2, “Monoacylglycerol lipase modulators” (Janssen Pharmaceutica NV, priority 2020, dated 2023)
